US20210308196A1, “COMPOSITIONS AND METHODS TO PROMOTE HOST DEFENSE AND STIMULATE, EXPAND, AND/OR RESET T CELL REPERTOIRES” (EVOLVE BIOSYSTEMS, INC., priority 2018, published 2021)

What was measured:
[1] = Bacterial growth and oligosaccharide use in HMO, LNnT or FOS media (growth curves, HPLC); settings: compared to other Bifidobacterium and Lactobacillus strains
Description: Little is known about the anti-inflammatory effects B. infantis-derived metabolites have on intestinal epithelial cells and how they might protect and maintain mucosal integrity in the infant gut. To investigate whether metabolites from B. infantis grown on HMO and synthetic HMOs can provide protective effects against pathogen-induced inflammation and maintain mucosal integrity compared to other commensal strains that have been previously characterized. B. infantis, B. breve, B. bifidum, and B. longum were grown in media containing pooled HMOs, synthetic Lacto-N-neotetraose (LNnT), or fructo-oligosaccharide (FOS, a readily available oligosaccharide commonly used in baby formulas). Four Lactobacillus plantarum strains were also grown in HMO, LNnT, and FOS media. Spent supernatant was collected and filtered after 48 hours of growth (when the bacteria reached the stationary phase) and evaluated for the remaining oligosaccharide concentration. […] After overnight incubation, cell supernatant was analyzed by ELISA for reductions in pro-inflammatory cytokines, including IL-8 and TNF-alpha. […]

[2] = system: TLR2, TLR4, TNF and COX-2; test: qPCR of inflammatory markers in sloughed off intestinal epithelial cells; assay type: in vivo, human; settings: treatment group
Source text: Expression of inflammatory markers including Toll like receptor (TLR) 2 and TLR4, COX-2 and TNF in intestinal epithelial cells: Previous data has implemented TLR2 in controlling mucosal inflammation by regulating intestinal epithelial barrier function. Further, a significant TLR4-dependent increase in Cox-2 expression has been shown in intestinal epithelial cells post exposure to lipopolysaccharide. TNF-α, a cytokine that plays a key role in mucosal inflammation, is readily detectable at the expression and protein levels in children who have various intestinal pathologies.

[3] = system: human colonic mucin glycans; test: Fecal glycome and colonic mucin-derived O-glycans (nano-HPLC-Chip-TOF MS); assay type: in vivo
Source text: A library of known mucin-specific O-glycans was compiled and used to query untargeted mass spectra of fecal samples.
Analysis of spectra obtained with nano-high performance liquid chromatography-chip/time-of flight mass spectrometry (nano-HPLC-Chip-TOF MS). […] Briefly, the HPLC system used was an Agilent 1200 series unit with a microfluidic chip, which was coupled to an Agilent 6220 series TOF mass spectrometer via chip cube interface. The capillary pump on the chromatography unit loaded the sample onto the 40-nL enrichment column at a flow rate of 4.0 μL/min with a 1-μL injection volume. A nano pump was used for analyte separation on the analytical column, which was […] and packed with porous graphitized carbon. Separation was accomplished using a binary gradient of aqueous solvent A (3% acetonitrile (ACN)/water (v/v) in 0.1% formic acid (FA)) and organic solvent B (90% ACN/water (v/v) in 0.1% FA) using a method developed for HMO separation. The sample was introduced into the TOF mass spectrometer via electrospray ionization, which was tuned and calibrated using a dual nebulizer electrospray source with calibrant ions ranging from m/z 118.086 to 2721.895, and data were collected in the positive mode. These untargeted spectra were reanalyzed in the present study.
Glycan data analysis. The untargeted mass spectra were collected (as above) and analyzed using Agilent MassHunter Work station Data Acquisition version B.02.01 on the nanoHPLC-chip/TOF (Frese et al 2017). The “Find Compounds by Molecular Feature” function of the software was used to identify mucin glycan species within 20 ppm of theoretical masses. Compound abundances were expressed as volume in ion counts that corresponded to absolute abundances of the compounds in each sample. 1HexNAc-1NeuAc, 1HexNAc-1Hex-NeuAc, 2HexNAc-1NeuAc, 2HexNAc-1Hex-1Fuc, 2HexNAc-1Hex-1NeuAc, 2HexNAc-1Hex-2Fuc, 3HexNAc-1Hex-1Fuc, 2HexNAc-1Hex-1Fuc-1NeuAc, 2HexNAc-1Hex-1Fuc-2NeuAc, 3HexNAc-1Hex-2NeuAc and 3HexNAc-1Hex-2Fuc-1NeuAc were monitored as they are discriminitively human colonic glycans. Robbe et al. (2004) Rapid Communications in Mass Spectrometry 18(4): 412-420.
Statistical analysis. Multiple t-tests were carried out with the Holm-Sidak correction in Graph Pad Prism 7 (GraphPad Software, La Jolla, Calif. USA). Pearson and Spearman correlational tests and principle component analyses were performed in R (v 3.4.2). Adonis test was carried out using a weighted UNIFRAC distance matrix (Lozupone et al 2011) in QIIME 1.9.1 (Caporaso et al 2010). […] The total oligosaccharide (OS) compositions of the samples were determined by the untargeted approach of nano-HPLC-Chip-TOF. The compounds were characterized using previously published libraries. Thomsson et al. (2002) Glycobiology 12(1): 1-14; Robbe et al. (2004) Rapid Communications in Mass Spectrometry 18(4): 412-420; Matamoros et al. (2013) Trends in Microbiology 21(4): 167-173; Karav et al. (2016) Applied and Environ. Micro. 82(12): 3622-3630. Among these compositions, free HMO (Frese et al. (2017) mSphere 2(6): e00501-e00517) and mucin OS were found in the infant fecal glycome. The degradation of human colonic mucin glycans by different gut microbiome profiles was determined as the difference between a B. infantis-dominated microbiome and microbiomes with more abundant mucolytic taxa, such as Bacteroidaceae. As target molecules, 1HexNAc-1NeuAc, 1HexNAc-1Hex-NeuAc, 2HexNAc-1NeuAc, 2HexNAc-1Hex-1Fuc, 2HexNAc-1Hex-1NeuAc, 2HexNAc-1 Hex-2Fuc, 3HexNAc-1Hex-1Fuc, 2HexNAc-1Hex-1Fuc-1NeuAc, 2HexNAc-1Hex-1Fuc-2NeuAc, 3HexNAc-1Hex-2NeuAc and 3HexNAc-1Hex-2Fuc-1NeuAc, were selected as typical human colonic mucin glycans, as shown by Robbe et al. (2004) Rapid Communications in Mass Spectrometry 18(4): 412-420.

[4] = system: fatty acid binding proteins (FABPs) and glutathione S-transferase (α-GST); test: Urine FABPs and α-GST (MILLIPLEX MAP luminex assay); assay type: in vivo, human; settings: treatment group
Source text: Glutathione S-transferases (α-GST) are enzymes present predominantly in liver, kidney and intestinal epithelial cells that are responsible for detoxification of intracellular toxins through conjugation to glutathione. In states of increased intestinal inflammation and permeability, plasma levels of (α-GST) are a peripheral marker of intestinal epithelial cell injury.

For “Bifidobacterium longum subsp. infantis EVC001 [B. infantis EVC001]”, the “Growth in HMOs (growth curves)” value [1] was “selective growth advantage”, the “Expression of TLR2, TLR4, TNF and COX-2” value [2] was “significantly reduced” and the “Number of total OS structures (including isomers and anomers)” value ([3]; infant feces, FIG. 2A) was 360.44±102.52. For the same substance, the “Number of colonic mucin-derived O-glycan structures” value ([3]; infant feces, FIG. 2B) was 6.33 (±2.24), the “Relative abundance of colonic mucin-derived O-glycans, number of structures” value ([3]; infant feces, FIG. 2C) was 1.78%±0.385 and the “Colonic mucin-derived O-glycans, proportion of the total OS profile” value ([3]; infant feces, FIG. 2D) was 1.68±1.12%. The “Glycan 1_0_0_1 (1HexNAc-1NeuAc) Log10 Volume EVC001-fed [Mean (+/− SD)]” value ([3]; infant feces, neutral mass 512) was 5.39, the “Glycan 1_1_0_1 (1HexNAc-1Hex-1NeuAc) Log10 Volume EVC001-fed [Mean (+/− SD)]” value ([3]; infant feces, neutral mass 675) was 4.01 and the “Glycan 2_0_0_1 (2HexNAc-1NeuAc) Log10 Volume EVC001-fed [Mean (+/− SD)]” value ([3]; infant feces, neutral mass 716) was 0. The “Glycan 2_1_1_0 (2HexNAc-1Hex-1Fuc) Log10 Volume EVC001-fed [Mean (+/− SD)]” value ([3]; infant feces, neutral mass 735) was 0, the “Glycan 2_1_0_1 (2HexNAc-1Hex-1NeuAc) Log10 Volume EVC001-fed [Mean (+/− SD)]” value ([3]; infant feces, neutral mass 878) was 5.56 and the “Glycan 2_1_2_0 (2HexNAc-1Hex-2Fuc) Log10 Volume EVC001-fed [Mean (+/− SD)]” value ([3]; infant feces, neutral mass 879) was 5.48. The “Glycan 3_1_1_0 (3HexNAc-1Hex-1Fuc) Log10 Volume EVC001-fed [Mean (+/− SD)]” value ([3]; infant feces, neutral mass 936) was 5.43, the “Glycan 2_1_1_1 (2HexNAc-1Hex-1Fuc-1NeuAc) Log10 Volume EVC001-fed [Mean (+/− SD)]” value ([3]; infant feces, neutral mass 1024) was 5.38 and the “Glycan 2_1_1_2 (2HexNAc-1Hex-1Fuc-2NeuAc) Log10 Volume EVC001-fed [Mean (+/− SD)]” value ([3]; infant feces, neutral mass 1315) was 6.68. The “Glycan 3_1_0_2 (3HexNAc-1Hex-2NeuAc) Log10 Volume EVC001-fed [Mean (+/− SD)]” value ([3]; infant feces, neutral mass 1372) was 5.47, the “Glycan 3_1_2_1 (3HexNAc-1Hex-2Fuc-1NeuAc) Log10 Volume EVC001-fed [Mean (+/− SD)]” value ([3]; infant feces, neutral mass 1373) was 6.12 and the Mucin degradation ([3]; supplemented infants compared to the control group) was “significantly less”. For the same substance, the “Urine levels of FABPs and α-GST” value [4] was “significantly reduced”.
